Source: patent US20240208981A1, “NITROGEN-CONTAINING HETEROCYCLIC POLYCYCLIC COMPOUND, PREPARATION METHOD THEREFOR, AND APPLICATION THEREOF” (Shanghai Hansoh Biomedical Co., Ltd., priority 2021, published 2024)
pIC50: −log10 of the molar value.

Legend:
[1] = molecular target: human OX1R (Homo sapiens (Human), UniProt O43613); experiment: Calcium flux in cells stably expressing OX1 receptor (FLIPR, Fluo-8 AM); assay type: cell-based; conditions: CHO-K1/human OX1R cells; inhibition of calcium flux, agonist OX-A at EC80
Sequence of human OX1R (O43613 whole entry): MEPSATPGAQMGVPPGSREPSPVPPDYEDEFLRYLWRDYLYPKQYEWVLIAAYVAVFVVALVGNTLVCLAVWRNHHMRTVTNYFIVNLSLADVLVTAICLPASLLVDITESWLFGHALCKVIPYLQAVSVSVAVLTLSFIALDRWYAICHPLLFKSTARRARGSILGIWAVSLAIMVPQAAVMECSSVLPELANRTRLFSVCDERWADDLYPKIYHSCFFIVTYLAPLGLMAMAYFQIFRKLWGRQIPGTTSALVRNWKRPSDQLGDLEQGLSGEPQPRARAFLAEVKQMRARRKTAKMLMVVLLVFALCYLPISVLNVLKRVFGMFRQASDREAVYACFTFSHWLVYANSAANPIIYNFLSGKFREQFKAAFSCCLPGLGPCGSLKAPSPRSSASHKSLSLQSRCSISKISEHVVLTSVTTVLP
Procedure: (§1) To determine the inhibitory effect of the compounds on calcium flux in CHO-K1/human OX1R and CHO-K1/human OX2R cells.
(§2) • 1) CHO-K1/human OX1R and CHO-K1/human OX2R cell lines were cultured separately in complete medium at 37° C., 5% CO2 to 70%˜90% confluence; • 2) A 384-well cell culture plate was coated with 1× Matrigel (5 uL per well) at room temperature for 10-30 minutes; • 3) The cells were digested and resuspended in cell inoculation medium. CHO-K1/human OX1R and CHO-K1/human OX2R cell lines were inoculated into two 384-well cell culture plates respectively (8,000 cells/well/20 μL). The culture plates were incubated at 37 °C, 5% CO2 for 24 hours; • 4) The cell culture plates were taken out of the CO2 incubator and equilibrated at room temperature for 10 minutes; • 5) 1000× Fluo-8 AM was diluted with assay buffer 1 equilibrated to room temperature to obtain 1× Fluo-8 AM at a concentration of 2 μM; • 6) The culture medium in the cell culture plate was removed, and 20 μL of 1× Fluo-8 AM was added to each well. The plates were centrifuged at room temperature at 300 rpm for 60 seconds, and incubated at room temperature in the dark for 1 hour; • 7) Determination of EC80 of OX1 and OX2 receptors agonists (OX-A for OX1R assays, OX-B for OX2R assays): OX1 and OX2 receptors agonists working solutions were diluted and prepared respectively. The diluted OX1 and OX2 receptors agonists were added using FLIPR Tetra to the experimental wells of the 384-well cell culture plates corresponding to CHO-K1/human OX1R and CHO-K1/human OX2R cell lines. The data were collected, and EC80 of OX-A and OX-B was obtained according to the following experimental data processing method; • 8) Steps 1 to 7 were repeated. […] After 15 minutes, OX1 and OX2 receptors agonists were added to the plates of the two cell lines respectively according to the previously obtained EC80. The data were collected, and the IC50 of the positive compounds and the test compounds was determined.
(§3) Fluorescence signal value (RFU) was collected with FLIPR Tetra.

[2] = molecular target: human OX2R (Homo sapiens (Human), UniProt O43614); experiment: Calcium flux in cells stably expressing OX2 receptor (FLIPR, Fluo-8 AM); assay type: cell-based; conditions: for pIC50: CHO-K1/human OX2R cells, inhibition of calcium flux, agonist OX-B at EC80; for Selectivity multiple: OX1R IC50 versus OX2R IC50
Sequence of human OX2R (O43614 whole entry): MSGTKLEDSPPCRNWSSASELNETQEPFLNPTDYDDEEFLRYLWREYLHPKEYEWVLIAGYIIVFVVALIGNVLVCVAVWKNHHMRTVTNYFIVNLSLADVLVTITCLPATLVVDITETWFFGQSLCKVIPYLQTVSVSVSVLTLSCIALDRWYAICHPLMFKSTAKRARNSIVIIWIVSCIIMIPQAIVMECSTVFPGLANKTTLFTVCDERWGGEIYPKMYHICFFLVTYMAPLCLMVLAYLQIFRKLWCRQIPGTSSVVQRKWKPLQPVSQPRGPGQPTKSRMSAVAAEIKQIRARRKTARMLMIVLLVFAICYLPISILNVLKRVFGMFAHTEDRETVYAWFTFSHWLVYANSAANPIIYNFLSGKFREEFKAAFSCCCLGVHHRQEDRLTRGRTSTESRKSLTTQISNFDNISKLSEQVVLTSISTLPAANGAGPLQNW
Procedure: as §1, §2, §3

[3] = in vivo; conditions: male, SD, rat, po, 5 mg/kg
Procedure: SD rats were used as test animals.
The plasma samples were stored at −80° C.

[4] = molecular target: CYP450 1A2 (Homo sapiens (Human), UniProt P05177)
Sequence of CYP450 1A2 (P05177 whole entry): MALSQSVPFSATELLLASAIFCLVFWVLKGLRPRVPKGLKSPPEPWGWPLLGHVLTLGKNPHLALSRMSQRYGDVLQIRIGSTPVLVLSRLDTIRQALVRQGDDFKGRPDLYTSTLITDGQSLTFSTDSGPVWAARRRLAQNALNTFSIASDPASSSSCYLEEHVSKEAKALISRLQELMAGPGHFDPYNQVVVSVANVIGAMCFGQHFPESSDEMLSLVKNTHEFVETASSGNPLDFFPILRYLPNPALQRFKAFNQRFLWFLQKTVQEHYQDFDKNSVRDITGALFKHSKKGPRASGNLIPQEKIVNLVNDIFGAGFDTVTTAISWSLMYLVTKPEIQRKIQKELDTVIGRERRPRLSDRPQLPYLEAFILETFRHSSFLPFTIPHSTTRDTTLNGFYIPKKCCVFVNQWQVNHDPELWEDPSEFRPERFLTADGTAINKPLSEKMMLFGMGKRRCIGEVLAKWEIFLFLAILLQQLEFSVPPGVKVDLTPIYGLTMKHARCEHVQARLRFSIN
Procedure: (§4) The human liver microsome incubation system was used to rapidly predict the inhibitory effect of the compounds on CYP450 enzyme subtypes by using single-point method.
(§5) The compound of the example to be tested was weighed, diluted to 10 mM with DMSO, and then diluted to 100 μM with 100 mM phosphate buffer.
(§6) • 1. 40 μL of liver microsomes, 10 μL of substrate, and 10 μL of the test compound were added to a 96-well plate, and pre-incubated for 3 minutes. • 2. 40 μL of NADPH was added. • 3. 300 μL of acetonitrile stop solution containing an internal standard was added at 20 minutes. • 4. The sample was injected […].

[5] = molecular target: CYP450 2C9 (Homo sapiens (Human), UniProt P11712); experiment: CYP enzyme single point inhibition assay, human liver microsomes, 2C9; assay type: in vitro ADME; conditions: single-point method
Sequence of CYP450 2C9 (P11712 whole entry): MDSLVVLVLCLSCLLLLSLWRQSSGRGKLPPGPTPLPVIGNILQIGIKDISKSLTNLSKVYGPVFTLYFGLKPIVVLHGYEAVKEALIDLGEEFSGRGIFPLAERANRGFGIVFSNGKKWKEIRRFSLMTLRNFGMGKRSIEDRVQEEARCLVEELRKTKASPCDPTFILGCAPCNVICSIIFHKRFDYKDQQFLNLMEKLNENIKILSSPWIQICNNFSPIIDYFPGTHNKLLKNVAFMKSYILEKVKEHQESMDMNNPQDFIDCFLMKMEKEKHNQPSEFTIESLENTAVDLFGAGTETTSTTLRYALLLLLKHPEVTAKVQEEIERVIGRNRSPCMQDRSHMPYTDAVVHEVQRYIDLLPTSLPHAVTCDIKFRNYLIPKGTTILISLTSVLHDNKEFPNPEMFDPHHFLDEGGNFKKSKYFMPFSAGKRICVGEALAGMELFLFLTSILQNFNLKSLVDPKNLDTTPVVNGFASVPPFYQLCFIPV
Procedure: as §4, §5, §6

[6] = molecular target: CYP450 2D6 (Homo sapiens (Human), UniProt P10635); experiment: CYP enzyme single point inhibition assay, human liver microsomes, 2D6; assay type: in vitro ADME; conditions: single-point method
Sequence of CYP450 2D6 (P10635 whole entry): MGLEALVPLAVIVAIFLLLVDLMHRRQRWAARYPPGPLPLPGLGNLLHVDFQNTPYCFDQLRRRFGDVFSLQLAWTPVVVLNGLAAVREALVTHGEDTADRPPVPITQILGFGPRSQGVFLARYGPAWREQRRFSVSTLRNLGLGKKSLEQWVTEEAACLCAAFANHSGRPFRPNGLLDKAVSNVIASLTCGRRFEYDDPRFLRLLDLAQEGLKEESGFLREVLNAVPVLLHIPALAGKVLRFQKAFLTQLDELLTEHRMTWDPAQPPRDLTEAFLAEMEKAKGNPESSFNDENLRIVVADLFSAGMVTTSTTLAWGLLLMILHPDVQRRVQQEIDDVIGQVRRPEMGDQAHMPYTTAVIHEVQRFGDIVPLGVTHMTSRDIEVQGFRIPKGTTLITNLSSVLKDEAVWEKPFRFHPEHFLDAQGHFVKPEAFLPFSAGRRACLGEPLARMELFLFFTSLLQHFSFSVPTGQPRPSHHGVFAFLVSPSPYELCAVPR
Procedure: as §4, §5, §6

SMILES	pIC50 [1]	pIC50 [2]	Selectivity multiple [2]	AUC(0-inf) [3] [ng·h/mL]	Cmax [3] [ng/mL]	Tmax [3] [min]	pIC50 [4]	IC50 [5] [µM]	IC50 [6] [µM]
Cc1cc(C(C)(C)O)nc(N2C[C@H]3CN(C(=O)c4c(F)cccc4-n4nccn4)C[C@H]3C2)n1 [Compound 3, (2-fluoro-6-(2H-1,2,3-triazol-2-yl)phenyl)((3aR,6aS)-5-(4-(2-hydroxypropan-2-yl)-6-methylpyrimidin-2-yl)hexahydropyrrolo[3,4-c]pyrrol-2(1H)-yl)methanone]	5.43	7.35	83	–	–	–	–	–	–
Cc1cc(C)nc(N2C[C@H]3CN(C(=O)c4c(F)cccc4-n4ncc(C5CC5)n4)C[C@H]3C2)n1 [Compound 43, (2-(4-cyclopropyl-2H-1,2,3-triazol-2-yl)-6-fluorophenyl)((3aR,6aS)-5-(4,6-dimethylpyrimidin-2-yl)hexahydropyrrolo[3,4-c]pyrrol-2(1H)-yl)methanone]	4.99	7.00	102	–	–	–	–	–	–
Cc1cc(C)nc(N2C[C@H]3CN(C(=O)c4ccccc4OC(F)(F)C(F)F)C[C@H]3C2)n1 [Compound 45, ((3aR,6aS)-5-(4,6-dimethylpyrimidin-2-yl)hexahydropyrrolo[3,4-c]pyrrol-2(1H)-yl)(2-(1,1,2,2-tetrafluoroethoxy)phenyl)methanone]	5.36	7.28	83	–	–	–	–	–	–
Cc1ccc(N2C[C@H]3CN(C(=O)c4c(F)cccc4-n4nccn4)C[C@H]3C2)nc1C(C)(C)O [Compound 48, (2-fluoro-6-(2H-1,2,3-triazol-2-yl)phenyl)((3aR,6aS)-5-(6-(2-hydroxypropan-2-yl)-5-methylpyridin-2-yl)hexahydropyrrolo[3,4-c]pyrrol-2(1H)-yl)methanone]	4.61	7.13	328	–	–	–	–	–	–
Cc1cc(C)nc(N2C[C@H]3CN(C(=O)c4ccccc4-c4nc5ccccc5o4)C[C@H]3C2)n1 [Compound 50, (2-(benzooxazol-2-yl)phenyl)((3aR,6aS)-5-(4,6-dimethylpyrimidin-2-yl)hexahydropyrrolo[3,4-c]pyrrol-2(1H)-yl)methanone]	5.23	7.15	82	–	–	–	–	–	–
Cc1cc(C(C)(C)O)nc(N2C[C@H]3CN(C(=O)c4c(F)cccc4-c4ncccn4)C[C@H]3C2)n1 [Compound 56, (2-fluoro-6-(pyrimidin-2-yl)phenyl)((3R,6S)-5-(4-(2-hydroxypropan-2-yl)-6-methylpyrimidin-2-yl)hexahydropyrrolo[3,4-c]pyrrol-2(1H)-yl)methanone]	5.48	8.09	405	–	–	–	–	–	–
Cc1cc(C(C)(C)F)nc(N2C[C@H]3CN(C(=O)c4c(F)cccc4-n4nccn4)C[C@H]3C2)n1 [Compound 57, (2-fluoro-6-(2H-1,2,3-triazol-2-yl)phenyl)((3aR,6aS)-5-(4-(2-fluoropropan-2-yl)-6-methylpyrimidin-2-yl)hexahydropyrrolo[3,4-c]pyrrol-2(1H)-yl)methanone]	5.52	8.01	314	279	110	30	–	–	–
Cc1cc(N2C[C@H]3CN(C(=O)c4c(F)cccc4-n4nccn4)C[C@H]3C2)nc(C(C)(C)O)c1 [Compound 60, (2-fluoro-6-(2H-1,2,3-triazol-2-yl)phenyl)((3R,6S)-5-(6-(2-hydroxypropan-2-yl)-4-methylpyridin-2-yl)hexahydropyrrolo[3,4-c]pyrrol-2(1H)-yl)methanone]	4.87	7.26	244	–	–	–	< 4.00	–	–
Cc1cc(N2C[C@H]3CN(C(=O)c4c(O)cccc4-n4nccn4)C[C@H]3C2)nc(C(C)(C)O)c1 [Compound 85, (2-hydroxy-6-(2H-1,2,3-triazol-2-yl)phenyl)((3R,6S)-5-(6-(2-hydroxypropan-2-yl)-4-methylpyridin-2-yl)hexahydropyrrolo[3,4-c]pyrrol-2(1H)-yl)methanone]	4.86	7.23	234	–	–	–	–	–	–
CC(C)(O)c1nc(N2C[C@H]3CN(C(=O)c4c(F)cccc4-n4nccn4)C[C@H]3C2)ccc1F [Compound 91, ((3aR,6aS)-5-(5-fluoro-6-(2-hydroxypropanyl)pyridin-2-yl)hexahydropyrrolo[3,4-c]pyrrol-2(1H)-yl)(2-fluoro-6-(2H-1,2,3-triazol-2-yl)phenyl)methanone]	5.50	7.44	88	–	–	–	–	–	–
CC(C)(O)c1nc(N2C[C@H]3CN(C(=O)c4c(F)cccc4-c4ncccn4)C[C@H]3C2)ncc1F [Compound 93, ((3aR,6aS)-5-(5-fluoro-4-(2-hydroxypropan-2-yl)pyrimidin-2-yl)hexahydropyrrolo[3,4-c]pyrrol-2(1H)-yl)(2-fluoro-6-(pyrimidin-2-yl)phenyl)methanone]	–	–	122	–	–	–	< 4.00	> 100	> 100
Cc1nc(N2C[C@H]3CN(C(=O)c4ccc(F)cc4-n4nccn4)C[C@H]3C2)nc(C(C)(C)O)c1F [Compound 94, (4-fluoro-2-(2H-1,2,3-triazol-2-yl)phenyl)((cis)-5-(5-fluoro-4-(2-hydroxypropan-2-yl)-6-methylpyrimidin-2-yl)hexahydropyrrolo[3,4-c]pyrrol-2(1H)-yl)methanone]	5.92	7.60	48	–	–	–	–	–	–
Cc1nc(N2C[C@H]3CN(C(=O)c4cccc(F)c4-n4nccn4)C[C@H]3C2)nc(C(C)(C)O)c1F [Compound 95, (3-fluoro-2-(2H-1,2,3-triazol-2-yl)phenyl)((cis)-5-(5-fluoro-4-(2-hydroxypropan-2-yl)-6-methylpyrimidin-2-yl)hexahydropyrrolo[3,4-c]pyrrol-2(1H)-yl)methanone]	–	–	49	–	–	–	< 4.00	> 100	> 100
Cc1nc(N2C[C@H]3CN(C(=O)c4c(F)cccc4-c4ccccn4)C[C@H]3C2)nc(C(C)(C)O)c1F [Compound 97, ((3aR,6aS)-5-(5-fluoro-4-(2-hydroxypropan-2-yl)-6-methylpyrimidin-2-yl)hexahydropyrrolo[3,4-c]pyrrol-2(1H)-yl)(2-fluoro-6-(pyridin-2-yl)phenyl)methanone]	–	–	36	–	–	–	–	–	–
